According to patent US11407715B2, “Substituted indoline derivatives as dengue viral replication inhibitors” (JANSSEN PHARMACEUTICALS, INC., priority 2017, dated 2022):
Where two headings read alike, the source gives them in different places.

Legend:
DENV-1 strain TC974#666 = assay: Tetravalent RT-qPCR assay, serotype 1; assay type: cell-based, Dengue virus; conditions: RT-qPCR serotype 1 TC974#666, Vero cells
Experimental: (§1) The antiviral activity of the compounds of the invention was tested against DENV-1 strain TC974#666 (NCPV), DENV-2 strain 16681, DENV-3 strain H87 (NCPV) and DENV-4 strain H241 (NCPV) in a RT-qPCR assay. Therefore, Vero cells were infected with either DENV-1, or -2, or -3, or -4 in the presence or absence of test compounds. At day 3 post-infection, the cells were lysed and cell lysates were used to prepare cDNA of both a viral target (the 3′UTR of DENV; Table 2) and a cellular reference gene (β-actin, Table 2). Subsequently, a duplex real time PCR was performed on a Lightcycler480 instrument. The generated Cp value is inversely proportional to the amount of RNA expression of these targets. Inhibition of DENV replication by a test compound results in a shift of Cp's for the 3′UTR gene. On the other hand, if a test compound is toxic to the cells, a similar effect on β-actin expression will be observed. The comparative ΔΔCp method is used to calculate ECs50, which is based on the relative gene expression of the target gene (3′UTR) normalized with the cellular housekeeping gene (β-actin). In addition, CC50 values are determined based on the Cp values acquired for the housekeeping gene β-actin.
(§2) The culture medium consisted of minimal essential medium supplemented with 2% of heat-inactivated fetal calf serum, 0.04% gentamycin (50 mg/mL) and 2 mM of L-glutamine. Vero cells, obtained from ECACC, were suspended in culture medium and 75 μL/well was added in 96-well plates (10000 cells/well), which already contain the antiviral compounds. […] In addition, each plate contains wells which are assigned as virus controls (containing cells and virus in the absence of compound) and cell controls (containing cells in the absence of virus and compound). Once the cells were added in the plates, the plates were incubated in a fully humidified incubator (37° C., 5% CO2) until the next day. Dengue viruses serotype-1, 2, 3 and 4 were diluted in order to obtain a Cp of ˜22-24 in the assay. Therefore, 25 μL of virus suspension was added to all the wells containing test compound and to the wells assigned as virus control. In parallel, 25 μL of culture medium was added to the cell controls. Next, the plates were incubated for 3 days in a fully humidified incubator (37° C., 5% CO2). After 3 days, the supernatant was removed from the wells and the cells were washed twice with ice-cold PBS (˜100 μL). The cell pellets within the 96-well plates were stored at −80° C. for at least 1 day. Next, RNA was extracted using the Cells-to-CT™ lysis kit, according to the manufacturer's guideline (Life Technologies). The cell lysates can be stored at −80C or immediately used in the reverse transcription step.
(§3) In preparation of the reverse transcription step, mix A (table 3A) was prepared and 7.57 μL/well was dispensed in a 96-well plate. After addition of 5 μL of the cell lysates, a five minute denaturation step at 75° C. was performed (table 3B). Afterwards, 7.43 μL of mix B was added (table 3C) and the reverse transcription step was initiated (table 3D) to generate cDNA.
(§4) Finally, a RT-qPCR mix was prepared, mix C (table 4A), and 22.02 μL/well was dispensed in 96-well LightCycler qPCR plates to which 3 μL of cDNA was added and the qPCR was performed according to the conditions in table 4B on a LightCycler 480.
(§5) Using the LightCycler software and an in-house LIMS system, dose response curves for each compound were calculated and the half maximal effective concentration (EC50) and the half maximal cytotoxic concentration (CC50) were determined (Tables 5-8).

DENV-4 strain H241 = assay: Tetravalent RT-qPCR assay, serotype 4; assay type: cell-based, Dengue virus; conditions: RT-qPCR serotype 4 H241, Vero cells
Experimental: as §1, §2, §3, §4, §5

DENV-2 strain 16681 = assay: Tetravalent RT-qPCR assay, serotype 2; assay type: cell-based, Dengue virus; conditions: RT-qPCR serotype 2 16681, Vero cells
Experimental: as §1, §2, §3, §4, §5

DENV-3 strain H87 = assay: Tetravalent RT-qPCR assay, serotype 3; assay type: cell-based, Dengue virus; conditions: RT-qPCR serotype 3 H87, Vero cells
Experimental: as §1, §2, §3, §4, §5

in vitro [1] = conditions: African green monkey
DENV-2 16681 strain = assay: microbe, parasite or virus in culture; assay type: cell-based, Dengue virus; conditions: for EC50: DENV-2 16681 eGFP, Vero cells, MOI 0.5, 3 days; for SI: SI=CC50/EC50, DENV-2 antiviral assay
in vitro [2] = conditions: African green monkey; remark: listed apart in the source
Vero cells [3] = conditions: African green monkey, 3 days
Vero cells [4] = conditions: African green monkey

Structure (SMILES)	EC50 (DENV-1 strain TC974#666; Dengue virus, DENV1, Vero) [nM]	EC50 (DENV-4 strain H241; Dengue virus, DENV4, Vero) [nM]	EC50 (DENV-2 strain 16681; Dengue virus, DENV2, Vero) [nM]	EC50 (DENV-3 strain H87; Dengue virus, DENV3, Vero) [nM]	CC50 (in vitro [1]) [nM]	EC50 (DENV-2 16681 strain) [nM]	SI (DENV-2 16681 strain)	CC50 at 3 days (in vitro [2]) [nM]	EC50 (DENV-1 strain TC974#666) [nM]	CC50 (Vero cells [3]) [nM]	CC50 (Vero cells [4]) [nM]	EC50 (DENV-2 strain 16681) [nM]	EC50 (DENV-3 strain H87) [nM]	EC50 (DENV-4 strain H241) [nM]
COc1cc(NC(C(=O)N2CCc3ccc(OC(F)(F)F)cc32)c2ccc(Cl)cc2)cc(OCCC(C)C(=O)O)c1 (single isomer, unassigned) [Compound 1C]	0.23	16	0.18	2.4	12000	0.094	131193							
COc1cc(NC(C(=O)N2CCc3ccc(OC(F)(F)F)cc32)c2ccc(Cl)cc2)cc(OCCC(C)(C)C(=O)O)c1 (single isomer, unassigned) [Compound 2A]	0.57	27	0.48	6.1	13000	0.38	34500	> 2500						
COc1cc(NC(C(=O)N2CCc3ccc(OC(F)(F)F)cc32)c2ccc(Cl)cc2)cc(OCC(C)CC(=O)O)c1 (single isomer, unassigned) [Compound 4C]		15				0.11	121878		0.066	> 1000	13000	0.06	0.77	
COc1cc(NC(C(=O)N2CCc3ccc(OC(F)(F)F)cc32)c2ccc(Cl)cc2)cc(OCC2(CC(=O)O)CC2)c1 (single isomer, unassigned) [Compound 5A]	0.58	58	0.42	8.1	12000	0.51	26300							
COc1cc(NC(C(=O)N2CCc3ccc(OC(F)(F)F)cc32)c2ccc(Cl)cc2)cc(OCCCCC(=O)O)c1 (single isomer, unassigned) [Compound 13B]	0.19	15	0.12	1.9		0.13	88200	> 2500			12000			
COc1cc(CCCCC(=O)O)cc(NC(C(=O)N2CCc3ccc(OC(F)(F)F)cc32)c2ccc(Cl)cc2)c1 (single isomer, unassigned) [Compound 14A]	0.26	15	0.2	2.8	16000	0.11	151558							
COc1cc(NC(C(=O)N2CCc3cc(OC)c(C(F)(F)F)cc32)c2ccc(Cl)cc2)cc(OCCC(C)C(=O)O)c1 (single isomer, unassigned) [Compound 20C]						0.17	59500	> 1000	0.3	> 1000	12000	0.071	3.4	20
COc1cc(NC(C(=O)N2CCc3cc(OC)c(C(F)(F)F)cc32)c2ccc(Cl)cc2)cc(OCCC(C)C(=O)O)c1 (single isomer, unassigned) [Compound 20D]						0.23	53400		0.89	> 1000	13000	0.19	8.9	55
COc1cc(NC(C(=O)N2CCc3ccc(OC(F)(F)F)cc32)c2ccc(Cl)cc2)cc(OCC2(F)CC2C(=O)O)c1 (centres unmarked) [Compound 28BB]						0.2	70600		0.11	> 1000	12000	0.1	1.2	18
COc1cc(NC(C(=O)N2CCc3ccc(OC(F)(F)F)cc32)c2ccc(Cl)cc2)cc(OCC2(F)CC2C(=O)O)c1 (centres unmarked) [Compound 29AB]						0.53	22300		0.23		12000	0.25	4.6	35
COc1cc(NC(C(=O)N2CCc3ccc(OC(F)(F)F)cc32)c2ccc(Cl)cc2)cc(OCC2(F)CC2C(=O)O)c1 (centres unmarked) [Compound 29BB]					12000	0.069	124722		0.048			0.025	0.39	2.8
COc1cc(NC(C(=O)N2CCc3cc(F)c(OC(F)(F)F)cc32)c2ccc(Cl)cc2)cc(OCC2CC(C(=O)O)C2)c1 (centres unmarked) [Compound 30A]		18	0.076	1.9	13000	0.24	47400		0.094					
COc1cc(NC(C(=O)N2CCc3cc(F)c(OC(F)(F)F)cc32)c2ccc(Cl)cc2)cc(OCC2CC(C(=O)O)C2)c1 (centres unmarked) [Compound 31A]						0.2	70300		0.19		12000	0.11	1.5	17
